What was measured:
MeV-Alaska = experiment: Viral CPE inhibition; conditions: compared with BM-1
Vero cells = experiment: Cytotoxicity in Vero cells
actively dividing cells = conditions: cited from earlier work

SMILES | fold reduction of potency relative to BM-1 (MeV-Alaska) [fold] | acute cytotoxicity (Vero cells) | effect on cell proliferation (actively dividing cells)
COc1ccc(-n2c(SC(C)C(=O)Nc3nc(C)cs3)nc3ccccc32)cc1 (centres unmarked) [Compound 6m] | 10 | – | –
COc1ccc(-n2c(SC(C)C(=O)Nc3ccc(C)cc3Cl)nc3ccccc32)cc1 (centres unmarked) [Compound 6p] | – | does not display any detectable acute cytotoxicity | cytostatic effect
COc1ccc(-n2c(SC(C)C(=O)Nc3cc(C)nn3C)nc3ccccc32)cc1 (centres unmarked) [Compound 6j] | 2 | – | –
COc1ccc(-n2c(SC(C)C(=O)Nc3cc(C)no3)nc3ccccc32)cc1 (centres unmarked) [Compound 6n] | 2 | – | –

— publication PMC3274751 (ACS medicinal chemistry letters, 2011)
